Where a SMILES comes first, the peptide text is derived from it. Where no end group is shown, it is not given here. [ ]: non-standard residue; d: D form. Ahx = NCCCCCC(=O)O
What was measured:
Aβ [1] = settings: literature, cited from earlier work
Aβ toxicity = settings: literature; cited from earlier work
[2] = Solubility of test peptides (Table 1; PBSA); settings: for Soluble: Table 1
Protocol: (§4) The solubility and aggregation properties of the test peptides were assessed by visual observation, analytical ultracentrifugation, and/or dynamic light scattering.

Aβ [3] = molecular target: Aβ (Homo sapiens, UniProt P05067); settings: literature; cited from earlier work
[4] = Self-aggregation of test peptides alone (sedimentation equilibrium ultracentrifugation, dynamic light scattering, visual observation); assay type: physicochemical; settings: peptide alone
Protocol: as §4

[5] = Circular dichroism spectroscopy, secondary structure of peptide alone; assay type: physicochemical; settings: phosphate buffer (0.1 M, pH 7.4)
Protocol: (§1) β(1-39), 15-25-K6, or a mixture of β(1-39) and 15-25-K6 (1:2 molar ratio) were dissolved in 0.01 M phosphate buffer, pH 7.2. The final concentration was 0.5 mg/ml for each peptide. The solution was passed through a 0.45 μm Millipore (Bedford, Mass.) filter to remove dust and then degassed. Circular dichroism spectra in the far UV (190-240 nm) were obtained using a modified Cary Model 60 spectropolarimeter (On-line Instrument Systems, Bogart, Calif.) and analyzed for secondary structure as described (Shen, C.-L., et al., Biophys. J. 65:2383-2395, 1993).
(§2) Circular dichroism spectra of Aβ(1-39) and 15-25-K6 in phosphate buffer (0.1 M. pH 7.4) were collected and quantitatively analyzed for secondary structure. Aβ(1-39) was 65% β-sheet and 30% random coil (spectra not shown), in line with previous measurements (Shen, C.-L., et al., supra, 1994). The secondary structure of 15-25-K6 was essentially the same (64% Aβ-sheet, 36% random coil, data not shown).

Aβ(1-39) [6] = molecular target: T1, Aβ(1-39) (Homo sapiens, UniProt P05067); assay: Circular dichroism spectroscopy, effect of peptide on Aβ(1-39) spectra; assay type: biochemical; settings: Aβ(1-39):peptide 1:2 molar ratio
T1 construct: A peptide homologous to the first 39 residues of Aβ, Aβ(1-39), was purchased from AnaSpec, Inc; purchased AnaSpec, Inc. (San Jose, Calif.)
T1 sequence (P05067 672-710): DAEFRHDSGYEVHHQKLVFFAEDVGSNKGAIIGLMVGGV
Protocol: as §1, §2

Aβ(1-39) [7] = molecular target: T1, Aβ(1-39); assay: Dynamic light scattering, Aβ(1-39) aggregation kinetics; assay type: biochemical; settings: Aβ 0.5 mg/ml, peptide:Aβ molar ratio 2:1
Protocol: Lyophilized Aβ(1-39) was solubilized in 0.1% TFA at 10 mg/ml, then diluted twenty-fold into PBSA or into PBSA containing the test peptide. PBSA was double-filtered through a 0.22 μm filter prior to use. pH was adjusted to 7.4 with 0.5 N NaOH, then the sample was immediately filtered through a 0.45 μm filter directly into a clean light scattering cuvette. In all cases Aβ(1-39) concentration was 0.5 mg/ml and the molar ratio of test peptide to Aβ was 2:1 unless otherwise indicated. Autocorrelation functions at 90° scattering angle were collected as described previously (Shen, et al., 1994, supra). Data were fit using the method of cumulants to derive and apparent hydrodynamic radius.
The effect of the test peptides on aggregation kinetics of Aβ(1-39) was assessed by dynamic light scattering (FIG. 1). FIG. 1 graphs the effect of recognition and hybrid peptides on Aβ aggregation kinetics. Final Aβ concentration was 0.5 mg/ml, Aβ:peptide molar ratio was 1:2 except where indicated. The hydrodynamic radius (measured at a 90° scattering angle) was measured as a function of time.

Aβ(1-39) [8] = molecular target: T1, Aβ(1-39); assay: Static light scattering, Aβ(1-39) aggregate molecular weight and morphology (Kratky plot); assay type: biochemical; settings: peptide:Aβ 2:1 (16-20-K6 1:2)
Protocol: Solutions of Aβ(1-39) alone or with test peptide at a 2:1 peptide:Aβ molar ratio were prepared as described above. Solutions were incubated at room temperature for 24 hours, after which scattered intensity data as a function of angle were collected and analyzed as described elsewhere (Shen, C.-L. and Murphy, Biophys. J., 1995, supra).
The effect of the test peptide on aggregate size and morphology was probed with static light scattering. […] Thus, the average molecular weight of Aβ(1-39) aggregates was not dramatically affected by any of the peptides tested.
A convenient tool for abstracting particle shape information from angular dependence data is the so-called Kratky plot. FIGS. 2A and B are Kratky plots of Aβ-peptide solutions. Aβ(1-39) was co-incubated with recognition (A) or hybrid (B) peptides for 24 hours, after which SLS data were collected, analyzed, and plotted as Kratky plots. In all cases, Aβ(1-39) concentration was 0.5 mg/ml and the peptide:Aβ molar ratio was 2:1, except for 16-20-K6 for which the molar ratio was lowered to 1:2. In FIG. 2, q is the scattering vector, which is related to the scattering angle, R is the Rayleigh ratio, a function of the scattering intensity, c is the concentration, and K is an instrument constant. Referring to FIG. 2A, the rising curves with an intermediate plateau are characteristic of semiflexible linear chains. […]

Aβ(1-39) [9] = molecular target: T1, Aβ(1-39); assay: ThT fluorescence spectroscopy with Aβ(1-39); assay type: biochemical; settings: one week incubation at room temperature
Protocol: A few samples used for cellular toxicity assays were tested for ThT fluorescence after one week aging and prior to dilution into cell culture medium. ThT (Sigma, St. Louis, Mo.) was dissolved at 100 μM in PBSA. Forty μl peptide solution and 40 μl ThT stock solution were mixed with 920 μl PBSA and briefly vortexed. Fluorescence emission spectra were taken using a Model M-3 Alphascan (Photon Technology International, South Brunswick, N.J.) spectrofluorimeter, with excitation at 450 nm. An increase in fluorescence with a maximum at 482 nm is indicative of amyloid (LeVine, H. Protein Sci. 2:404-410, 1993). Fluorescence intensity for diluted ThT in the absence of peptide was determined and subtracted from sample intensities. ThT fluorescence intensity was measured for Aβ-amyloid(1-39) alone or mixed with 18-25 or 15-25-K6 after one week incubation at room temperature. Samples were diluted 25-fold just prior to measurement. […] Because 16-25 was not soluble in PBS, the assay could not be repeated in a like manner for that peptide; however, a parallel experiment was conducted by dissolution of 16-25 or 18-25 into 35% ACN/TFA followed by mixing with Aβ(1-39) and dilution into PBS.

Aβ(25-35) = molecular target: T2, Aβ(25-35) (Homo sapiens, UniProt P05067); assay: ThT fluorescence spectroscopy with Aβ(25-35); assay type: biochemical; settings: mixed with Aβ(25-35)
T2 construct: A peptide homologous to the 25-35 residues of Aβ, Aβ(25-35), was purchased from Sigma; purchased Sigma (St. Louis, Mo.)

Aβ(1-39) [10] = molecular target: T1, Aβ(1-39); assay: Electron microscopy of Aβ(1-39) fibrils; assay type: biochemical; settings: aged approximately one week
Protocol: Solutions of Aβ(1-39) alone (0.5 mg/ml) or with 1 mg/ml 15-25-K6 were prepared as described above and aged at room temperature for approximately one week. A drop of the peptide solution was placed on a Pioloform coated 300 mesh electron microscope copper grid. After blotting, a drop of 1% ammonium molybdate was placed on the grid while being held with fine forceps. The grid was blotted on filter paper and allowed to dry before observing the specimen in a JEOL (Peabody, Mass.) 100 CX Electron Microscope at 60 kV. To further examine the aggregates, electron micrographs were taken. FIG. 3A and B are electron micrographs of (A) Aβ(1-39) alone and (B) Aβ(1-39) with 15-25-K6. Magnification is 72,500x.

PC-12 cells [11] = assay: Cellular toxicity (MTT assay): protection from Aβ(1-39) toxicity; assay type: cell-based; settings: both molar ratios tested (2:1 and 1:1)
Protocol: (§3) Solutions of recognition or hybrid peptides were prepared by direct dissolution of lyophilized peptide into sterile PBS (with antibiotics). Aβ(1-39) was dissolved in 0.1% TFA at 10 mg/ml, then diluted twenty-fold into sterile PBS (with antibiotics) or PBS containing the hybrid or recognition peptides. Solutions were prepared at 2:1 or 1:1 peptide:Aβ molar ratio. The samples were incubated at room temperature for 7 days, then diluted five-fold with medium and incubated for one day. As a control, PBS was diluted 5:1 with medium and added to some wells.
Freshly-prepared solutions of Aβ(1-39) were not toxic to the cells, consistent with other reports in the literature (Shearman, et al., supra). None of the test peptides alone were toxic. […] FIG. 4 graphs the effect of recognition and hybrid peptides on Aβ toxicity. Aβ(0.5 mg/ml) was incubated with the recognition peptide at a 1:2 Aβ:peptide molar ratio (A), or with the hybrid peptides at a 1:1 or 1:2 Aβ:peptide molar ratio (B), for one week, following which the solution was diluted five-fold and added to monolayer cultures of PC-12 cells. Cell viability was assessed with the MTT assay; results are reported relative to untreated wells. […] The ability of each peptide to protect cells from Aβ toxicity was assessed by a upper-tailed t-test; *, p<0.01; **, p<0.001.

PC-12 cells [12] = assay: Cellular toxicity (MTT assay): effect on Aβ(25-35) toxicity; assay type: cell-based; settings: co-incubation with Aβ(25-35)
Protocol: as §3
15-25-K6 shares essentially no homology with Aβ(25-35), which also forms fibrillar aggregates and is toxic to cells. Aβ(25-35) decreased MTT reduction to 45% of controls; co-incubation of 15-25-K6 with Aβ(25-35) had no effect on the toxicity of Aβ(25-35).

Aβ (Homo sapiens, UniProt P05067), sequence (P05067 672-711 limits assumed): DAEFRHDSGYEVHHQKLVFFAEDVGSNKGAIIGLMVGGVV

CCCCCCCCCCCCCCCC[N+]1(C)CCCCC1.[Br-] [hexadecyl-N-methylpiperidinium bromide]
effect on Aβ aggregation / fibril formation (Aβ [1]): inhibits Aβ fibril formation

Nc1c(/N=N/c2ccc(-c3ccc(/N=N/c4cc(S(=O)(=O)O)c5ccccc5c4N)cc3)cc2)cc(S(=O)(=O)O)c2ccccc12 [Congo red]
effect on Aβ aggregation / fibril formation (Aβ [1]): disrupt Aβ aggregation | effect on Aβ toxicity (Aβ toxicity): reduce Aβ toxicity

VFFAEDVG [18-25, VFFAEDVG]
Soluble [2]: yes

OC[C@H]1O[C@@H]2O[C@H]3[C@H](O)[C@@H](O)[C@@H](O[C@H]4[C@H](O)[C@@H](O)[C@@H](O[C@H]5[C@H](O)[C@@H](O)[C@@H](O[C@H]6[C@H](O)[C@@H](O)[C@@H](O[C@H]7[C@H](O)[C@@H](O)[C@@H](O[C@H]8[C@H](O)[C@@H](O)[C@@H](O[C@H]1[C@H](O)[C@H]2O)O[C@@H]8CO)O[C@@H]7CO)O[C@@H]6CO)O[C@@H]5CO)O[C@@H]4CO)O[C@@H]3CO [β-Cyclodextrin]
effect on Aβ toxicity (Aβ toxicity): partially reduces Aβ toxicity

KLVFFKKKKKK [16-20-K6, KLVFFKKKKKK]
solubility in PBSA [2]: readily soluble | Soluble [2]: yes

FAEDVGKKKKKK [20-25-K6, FAEDVGKKKKKK]
solubility in PBSA [2]: readily soluble | Soluble [2]: yes

CC(C)C[C@H](NC(=O)[C@@H](N)CCCCN)C(=O)N[C@H](C(=O)N[C@@H](Cc1ccccc1)C(=O)N[C@@H](Cc1ccccc1)C(=O)O)C(C)C [16-20, KLVFF]
Soluble [2]: yes

FFAEDVG [19-25, FFAEDVG]
Soluble [2]: yes

KKLVFFA
interaction with Aβ (Aβ [3]): interacts with the homologous sequence in Aβ

FAEDVG [20-25, FAEDVG]
Soluble [2]: yes

GQKLVFFAEDVGGaKKKKKK (GQKLVFFAEDVGG[Ahx]KKKKKK) [15-25-K6]
aggregation state by sedimentation equilibrium ultracentrifugation [4]: monomeric | random coil content [5]: 36% | β-sheet content [5]: 64% | effect on circular dichroism spectra of Aβ(1-39) (Aβ(1-39) [6]): did not significantly alter | effect on Aβ aggregate size / growth rate (hydrodynamic radius vs time) (Aβ(1-39) [7]): dramatic increase | increase in molecular weight of Aβ aggregates (Aβ(1-39) [8]; 24 hours after mixing): 2-2.5 fold | effect on Aβ(1-39) aggregate shape / morphology (Kratky plot) (Aβ(1-39) [8]; 24 hours co-incubation): greatest effect on the particle shape | effect on ThT fluorescence intensity of Aβ(1-39) (Aβ(1-39) [9]): reduced the ThT fluorescence intensity of Aβ(1-39) somewhat | effect on ThT fluorescence of Aβ(25-35) (Aβ(25-35)): neither a positive nor a negative effect | effect on Aβ(1-39) fibril morphology (electron micrographs) (Aβ(1-39) [10]): did not prevent fibril formation but did appear to reduce the average length of fibrils, and increase the extent of fibril entanglement | protection against Aβ(1-39) toxicity (PC-12 cells [11]): intermediate in protective effect | effect on toxicity of Aβ(25-35) (PC-12 cells [12]): no effect

CC(C)C[C@H](NC(=O)[C@@H](N)CCCCN)C(=O)N[C@H](C(=O)N[C@@H](Cc1ccccc1)C(=O)O)C(C)C [16-19, KLVF] (H-KLVF-OH)
Soluble [2]: yes

VLFKF [16-20S, VLFKF]
Soluble [2]: yes

QKLVTTAE [literature octapeptide with substitutions for the two Phe residues at positions 19 and 20]
effect on Aβ fibril formation (Aβ [1]; 10-fold molar excess, electron microscopy): inhibited fibril formation

— patent US6022859A, “Inhibitors of β-amyloid toxicity” (Wisconsin Alumni Research Foundation, priority 1997, dated 2000)
